The source of these data is paper PMC7468108 (Communications Biology, 2020).

The target in one assay is T1, Aβ42 (Homo sapiens, UniProt P05067).
T1 construct: purchased rPeptide (USA)
Put plainly: ThT-binding assay, inhibition of Aβ42 aggregation. The format is biochemical. The conditions noted are these: any molar ratio (5:1, 1:1, 1:5). On the procedure:
ThT is known to intercalate within the amyloid fibrils resulting in fluorescence emission proportionate to the amyloid growth.
(§1) The resulting thin films were dissolved in PBS (100 mM, pH 7.4) and sonicated for 5 min to get a stock concentration of 50 µM, which immediately diluted to required concentration for an experiment. Stock solutions of ThT (4 mM in PBS) and hybrid molecules (10 mM in PBS) were prepared. All the stock solutions were diluted according to the requirement.
The experiment was performed according to the previous report. […] […] Excitation and emission wavelengths were set at 440 nm and 485 nm, respectively.

The target of another assay is T2, hIAPP (Homo sapiens, UniProt P10997).
T2 construct: hIAPP is a 37-amino acid neuroendocrine peptide hormone; purchased Peptide 2.0 (USA)
T2 sequence (P10997 34-70 limits assumed): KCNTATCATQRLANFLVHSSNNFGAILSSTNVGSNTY
Nature of the assay: ThT-binding assay, inhibition of hIAPP aggregation. The format is biochemical. The conditions noted are these: molar ratios 5:1, 1:1, 1:5. On the procedure: A similar inhibitory effect by the hybrid molecules was found toward hIAPP aggregation. […] Upon co-incubation of hIAPP with the hybrid molecules, a dose-response inhibition of hIAPP fibril formation was observed (Fig. 2d, e and Supplementary Fig. 3). […] Also, for IAPP, the marginally stronger inhibitory effect of WGalNAc was statistically significant (Supplementary Fig. 2b).
as §1
The experiment was performed according to the previous report. […] Kinetics fluorescence data were collected at 37 °C in triplicate using Infinite M200 microplate reader (Tecan, Switzerland), with measurements acquired at 15 min intervals. Excitation and emission wavelengths were set at 440 nm and 485 nm, respectively.

T1 sequence (P05067 672-713 limits assumed): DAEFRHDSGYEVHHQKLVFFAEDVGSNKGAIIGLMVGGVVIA

For the molecule `N[C@@H]1O[C@H](CO)[C@H](O)[C@H](O)[C@H]1O` [galactosylamine, 1-amino-1-deoxy-β-D-galactose], the “inhibition of Aβ42 fibril formation (ThT), in words” value on Aβ42 is listed as “no inhibition effect”. The “inhibition of hIAPP fibril formation (ThT), in words” value at hIAPP is given as “No inhibitory effect”.
For the molecule `N[C@@H](Cc1c[nH]c2ccccc12)C(=O)O` [tryptophan], the “inhibition of Aβ42 fibril formation (ThT), in words” value at Aβ42 is “no inhibition effect”. Also, at hIAPP, the “inhibition of hIAPP fibril formation (ThT), in words” value was “No inhibitory effect”.
